doi:10.1101/2025.05.23.655736v2 (biorxiv, 2025)
*1 amine or outer side, *2 acyl side, *3 side chain or, on linkers, in order; H or OH if unused. Where a SMILES comes first, the peptide text is derived from it. [ ]: non-standard residue; d: D form. d(isoGln) = NC(=O)[C@@H](CCC(=O)[*:2])N[*:1]

How the values were obtained:
[1] = target: T1, PcsBCHAP (CHAP domain of PcsB) (Streptococcus pneumoniae, UniProt A0A0H2ZQ76); test: biochemical; conditions: read-out: ka (1/Ms)
T1 sequence (A0A0H2ZQ76 274-392): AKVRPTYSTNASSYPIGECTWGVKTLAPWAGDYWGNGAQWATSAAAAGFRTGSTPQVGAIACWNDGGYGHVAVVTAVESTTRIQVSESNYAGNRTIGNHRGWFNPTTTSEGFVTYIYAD

[2] = target: T1, PcsBCHAP (CHAP domain of PcsB); test: biochemical; conditions: read-out: kd (1/s)
[3] = target: T1, PcsBCHAP (CHAP domain of PcsB); test: SPR; assay type: binding

Row | kon [1] [M⁻¹ s⁻¹] | koff [2] [s⁻¹] | Kd [3] [nM] | Structure (SMILES)
1 | 33300 | 0.036 | – | C[C@H](N)C(=O)N[C@H](CCC(=O)N[C@@H](CCCCN)C(=O)N[C@H](C)C(=O)N[C@H](C)C(=O)O)C(=O)O [AEKADAD]
2 | 99600 | 0.00502 | – | C[C@H](N)C(=O)N[C@H](CCC(=O)N[C@@H](CCCCN)C(=O)N[C@H](C)C(=O)N[C@H](C)C(=O)O)C(N)=O [AiQKADAD] (H-A[d(isoGln)]K[dA][dA]-OH)
3 | 6280 | 0.00394 | – | CC(=O)N[C@H]1C(O)O[C@H](CO)[C@@H](O)[C@@H]1O[C@H](C)C(=O)N[C@@H](C)C(=O)N[C@H](CCC(=O)N[C@@H](CCC[C@@H](N)C(=O)O)C(=O)O)C(=O)O (stereo partly shown) [M-TriDAP]
4 | 98200 | 0.0117 | – | CC(=O)N[C@H]1C(O)O[C@H](CO)[C@@H](O)[C@@H]1O[C@H](C)C(=O)N[C@@H](C)C(=O)N[C@H](CCC(=O)N[C@@H](CCCCN)C(=O)O)C(N)=O (stereo partly shown) [M-TriLYS]
5 | 158000 | 0.017 | – | N[C@H](CCC(=O)N[C@H](CCC[C@H](N)C(=O)O)C(=O)O)C(=O)O [iE-DAP]
6 | 102000 | 0.00956 | 94.1 | NCCCC[C@H](NC(=O)CC[C@@H](N)C(=O)O)C(=O)O [iE-Lys]
